What all share (type): in vivo, human
Experiment [1] can be described thus: Serum creatine kinase (CK) around three days of high-intensity exercise. As to conditions: for CK (u): Day 1 to Day 3, 10 g/day, mean ± SD; for Creatine kinase levels, average increase: text b38, p=0.03. As to the method:
A high-intensity exercise protocol was designed as a double-blind, crossover study to assess the influence of D-Ribose adaptation to physical stress. Specifically, D-Ribose and a control (Dextrose) were administered on separate subjects at a dosage of ten grams per day (10 g/day). A variety of physiological parameters were measured in the subjects administered D-Ribose (DR) supplementation (i.e., the DR subjects) versus the subjects administered Dextrose (DEX) supplementation (i.e., the DEX subjects). To test D-ribose for adaptation, the twenty-six (26) adult subjects were further divided into two subgroups based on their fitness level (i.e., peak oxygen uptake (VO2 max) results. The first subgroup comprised subjects with higher VO2 max results (i.e., the “Fit Subgroup”) and the second subgroup comprised subjects with lower VO2 max results (i.e., the “Unfit Subgroup”). The Unfit Subgroup consisted of six (6) females and seven (7) males. The average age of the Unfit Subgroup was 27.7±3.4 years and the average peak VO2 of the Unfit Subgroup was 39.9±4.1 mL/kg/min. The Fit Subgroup consisted of four (4) females and nine (9) males. The average age of the Fit Subgroup was 27.6±3.5 year and the average peak VO2 of the Fit Subgroup was 52.2±4.3 mL/kg/min. The protocol of the double-blind crossover study involved an initial baseline assessment, followed by two separate day assessments after consuming either a DR or DEX supplement. Each exercise session entailed measurements of creatine kinase (CK), blood urea nitrogen (BUN), glucose, heart rate (HR), rate of perceived exertion (RPE), and power output (PO) measurements. Physiologic parameters were measured and hydration was provided to the subjects during the exercise session. The same protocol for testing and hydration protocol was followed for both DR subjects and DEX subjects. Blood samples were drawn from each subject via a venipuncture technique at the following time periods: • Ten (10) minutes before commencement of exercise; • Twenty (20) minutes after the commencement of and during exercise; • Forty (40) minutes after the commencement of and during exercise; • Sixty (60) minutes after the commencement of and during exercise; and • Twenty-four (24) hours after the conclusion of exercise (twenty-five (25) hours after the commencement of exercise). Blood glucose was measured at all of the above time points except at twenty-four (24) hours post-exercise. Creatine kinase and BUN levels were measured at the pre-exercise (−10 min.) point during the three (3) days of exercise and twenty-four (24) hours post-exercise following the third (last) exercise session. Heart rate was recorded using a Polar HR monitor. Blood glucose levels were measured using a Bayer glucose monitor. Blood lactate levels were measured by an AccuSport Lactate Analyzer. Creatine kinase and BUN were measured utilizing an Abaxis Piccolo analyzer. Power data from the time trial performance test was assessed with the Sports Medicine Industries (SMI) software package.

A short description of experiment [2]: Rating of perceived exertion (RPE) during exercise. As to conditions: for RPE (Borg 6-20 scale): 10 g/day, mean ± SD. As to the method:
A high-intensity exercise protocol was designed as a double-blind, crossover study to assess the influence of D-Ribose adaptation to physical stress. Specifically, D-Ribose and a control (Dextrose) were administered on separate subjects at a dosage of ten grams per day (10 g/day). A variety of physiological parameters were measured in the subjects administered D-Ribose (DR) supplementation (i.e., the DR subjects) versus the subjects administered Dextrose (DEX) supplementation (i.e., the DEX subjects). To test D-ribose for adaptation, the twenty-six (26) adult subjects were further divided into two subgroups based on their fitness level (i.e., peak oxygen uptake (VO2 max) results. The first subgroup comprised subjects with higher VO2 max results (i.e., the “Fit Subgroup”) and the second subgroup comprised subjects with lower VO2 max results (i.e., the “Unfit Subgroup”). The Unfit Subgroup consisted of six (6) females and seven (7) males. The average age of the Unfit Subgroup was 27.7±3.4 years and the average peak VO2 of the Unfit Subgroup was 39.9±4.1 mL/kg/min. The Fit Subgroup consisted of four (4) females and nine (9) males. The average age of the Fit Subgroup was 27.6±3.5 year and the average peak VO2 of the Fit Subgroup was 52.2±4.3 mL/kg/min. The protocol of the double-blind crossover study involved an initial baseline assessment, followed by two separate day assessments after consuming either a DR or DEX supplement. Each exercise session entailed measurements of creatine kinase (CK), blood urea nitrogen (BUN), glucose, heart rate (HR), rate of perceived exertion (RPE), and power output (PO) measurements. […] The Likert scale (0-10 points) was used to subjectively assess quadriceps muscle soreness, overall fatigue, appetite, perceived performance, and sleep quality. These scales were completed prior to and following each exercise session.

Experiment [3] is described as follows: Blood glucose levels during exercise. As to conditions: mean (SD). Here is the method: A high-intensity exercise protocol was designed as a double-blind, crossover study to assess the influence of D-Ribose adaptation to physical stress. Specifically, D-Ribose and a control (Dextrose) were administered on separate subjects at a dosage of ten grams per day (10 g/day). A variety of physiological parameters were measured in the subjects administered D-Ribose (DR) supplementation (i.e., the DR subjects) versus the subjects administered Dextrose (DEX) supplementation (i.e., the DEX subjects). To test D-ribose for adaptation, the twenty-six (26) adult subjects were further divided into two subgroups based on their fitness level (i.e., peak oxygen uptake (VO2 max) results. The first subgroup comprised subjects with higher VO2 max results (i.e., the “Fit Subgroup”) and the second subgroup comprised subjects with lower VO2 max results (i.e., the “Unfit Subgroup”). The Unfit Subgroup consisted of six (6) females and seven (7) males. The average age of the Unfit Subgroup was 27.7±3.4 years and the average peak VO2 of the Unfit Subgroup was 39.9±4.1 mL/kg/min. The Fit Subgroup consisted of four (4) females and nine (9) males. The average age of the Fit Subgroup was 27.6±3.5 year and the average peak VO2 of the Fit Subgroup was 52.2±4.3 mL/kg/min. Physiologic parameters were measured and hydration was provided to the subjects during the exercise session. The same protocol for testing and hydration protocol was followed for both DR subjects and DEX subjects. Blood samples were drawn from each subject via a venipuncture technique at the following time periods: • Ten (10) minutes before commencement of exercise; • Twenty (20) minutes after the commencement of and during exercise; • Forty (40) minutes after the commencement of and during exercise; • Sixty (60) minutes after the commencement of and during exercise; and • Twenty-four (24) hours after the conclusion of exercise (twenty-five (25) hours after the commencement of exercise). Blood glucose was measured at all of the above time points except at twenty-four (24) hours post-exercise. Creatine kinase and BUN levels were measured at the pre-exercise (−10 min.) point during the three (3) days of exercise and twenty-four (24) hours post-exercise following the third (last) exercise session. Heart rate was recorded using a Polar HR monitor. Blood glucose levels were measured using a Bayer glucose monitor. Blood lactate levels were measured by an AccuSport Lactate Analyzer. Creatine kinase and BUN were measured utilizing an Abaxis Piccolo analyzer. Power data from the time trial performance test was assessed with the Sports Medicine Industries (SMI) software package.

Consider 2 compounds from patent US20210227854A1, “USE OF D-RIBOSE TO ENHANCE ADAPTATION TO PHYSICAL STRESS” (Bioenergy Life Science, Inc., priority 2014, published 2021).

As to `O=C[C@H](O)[C@@H](O)[C@H](O)[C@H](O)CO` [DEX, Dextrose, reference compound], the “CK (u)” value in experiment [1] (Fit Subgroup) worked out at 12.1 ± 270 u; in experiment [1] (Unfit Subgroup) it was 124.5 ± 126.5 u. Also, the “Creatine kinase levels, average increase” value in experiment [1] (Unfit Subgroup) turned out to be 121.4±110.2 U. The RPE in experiment [2] (Fit Subgroup) was 14±2; in experiment [2] (Unfit Subgroup, p=0.003), 14±2. The “RPE (Borg 6-20 scale)” value in experiment [2] (Fit Subgroup) is given as 13.9 ± 1.6; in experiment [2] (Unfit Subgroup) it was 13.5 ± 1.5. Further, the “Average rate of perceived exertion, DEX subjects versus DR subjects (FIG. 1)” value in experiment [2] (all measured points of the exercise sessions) is given as “greater”. Moreover, the “Blood glucose level during exercise” value in experiment [3] (Fit Subgroup, 19.5) was 4.0 (0.6) mM/L; in experiment [3] (Fit Subgroup, 39.5) it was 4.1 (0.7) mM/L; in experiment [3] (Fit Subgroup, 59.5) it was 4.0 (0.6) mM/L; in experiment [3] (Unfit Subgroup, 19.5), 4.0 (0.5) mM/L; in experiment [3] (Unfit Subgroup, 39.5), 4.0 (0.5) mM/L; in experiment [3] (Unfit Subgroup, 59.5) it was 3.9 (0.6) mM/L.
As for `O=C[C@H](O)[C@H](O)[C@H](O)CO` [DR, D-Ribose], the “Change in CK levels, DR versus DEX” value in experiment [1] (Fit Subgroup) is “No differences”. In addition, the figures for the “CK (u)” value in experiment [1] (Fit Subgroup) and in experiment [1] (Unfit Subgroup) were 40.0 ± 348.1 u and 10.3 ± 79.3 u, respectively. Also, the “Creatine kinase levels, average increase” value in experiment [1] (Unfit Subgroup) turned out to be 37.1±85.2 U. Besides, the RPE in experiment [2] (Fit Subgroup) was 14±2; in experiment [2] (Unfit Subgroup, p=0.003), 13±2. The figures for the “RPE (Borg 6-20 scale)” value in experiment [2] (Fit Subgroup) and in experiment [2] (Unfit Subgroup) were 13.6 ± 1.8 and 13.1 ± 1.6, respectively. Besides, the “Blood glucose level during exercise” value was 3.8 (0.5) mM/L in experiment [3] (Fit Subgroup, 19.5); 4.0 (0.5) mM/L in experiment [3] (Fit Subgroup, 39.5); 3.9 (0.5) mM/L in experiment [3] (Fit Subgroup, 59.5); 4.0 (0.6) mM/L in experiment [3] (Unfit Subgroup, 19.5); 4.0 (0.6) mM/L in experiment [3] (Unfit Subgroup, 39.5); 4.1 (0.7) mM/L in experiment [3] (Unfit Subgroup, 59.5).
